Data on 4 compounds can be found in ChEMBL document CHEMBL1126478, “The syntheses and binding affinities of tools for the study of angiotensin AT2 receptors” (Bioorg Med Chem Lett, 1993).

pIC50: −log10 of the molar value. The source made the active and inactive calls.

The target in test [1] is T1, Type-2 angiotensin II receptor (Homo sapiens, UniProt P50052).
T1 sequence (P50052 whole entry): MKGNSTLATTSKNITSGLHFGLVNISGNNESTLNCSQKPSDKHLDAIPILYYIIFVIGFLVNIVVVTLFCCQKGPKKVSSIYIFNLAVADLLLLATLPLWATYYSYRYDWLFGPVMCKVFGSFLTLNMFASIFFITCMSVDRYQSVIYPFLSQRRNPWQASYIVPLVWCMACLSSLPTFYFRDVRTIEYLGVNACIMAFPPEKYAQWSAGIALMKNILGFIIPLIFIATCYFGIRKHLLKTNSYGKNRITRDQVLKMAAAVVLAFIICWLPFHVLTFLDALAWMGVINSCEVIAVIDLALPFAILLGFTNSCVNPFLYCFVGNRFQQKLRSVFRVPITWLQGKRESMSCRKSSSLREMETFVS
The test can be described thus: The compound was evaluated for the inhibition of binding of [125I]-CGP 42112A to AT2 receptor.

Test [2] deals with T2, Type-1 angiotensin II receptor (Homo sapiens) (UniProt P30556).
T2 sequence (whole entry): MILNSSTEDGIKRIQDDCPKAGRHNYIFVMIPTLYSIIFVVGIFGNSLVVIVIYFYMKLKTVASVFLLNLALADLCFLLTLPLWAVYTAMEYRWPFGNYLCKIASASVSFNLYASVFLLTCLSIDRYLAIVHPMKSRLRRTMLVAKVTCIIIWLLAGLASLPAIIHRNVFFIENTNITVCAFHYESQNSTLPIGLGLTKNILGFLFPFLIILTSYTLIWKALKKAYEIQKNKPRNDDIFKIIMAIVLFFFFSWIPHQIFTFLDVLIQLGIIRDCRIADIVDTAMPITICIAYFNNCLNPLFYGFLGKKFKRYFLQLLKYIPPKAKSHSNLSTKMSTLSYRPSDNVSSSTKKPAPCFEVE
The test can be described thus: The compound was evaluated for the inhibition of binding of [3H]-DUP 753 to AT1 receptor at 0.1 uM; not active (</= 10% Inhibition).

In test [3] the target is T2, Type-1 angiotensin II receptor (Homo sapiens). The test can be described thus: The compound was evaluated for the inhibition of binding of [3H]-DUP 753 to AT1 receptor at 1 uM; not active (</= 10% Inhibition).

As a reminder, the pIC50 is −log10 of the IC50, conventionally taken in molar units. Read a low pIC50 as a large IC50. Turning to `Cc1cc(Cn2cnc3c2C[C@@H](C(=O)O)N(C(=O)C(c2ccccc2)c2ccccc2)C3)cc(I)c1O`, the pIC50 in test [1] was 8.29. Besides, the inhibition entry in test [2] was “inactive”.
For `Cc1cc(Cn2cnc3c2C[C@@H](C(=O)O)N(C(=O)C(c2ccccc2)c2ccccc2)C3)ccc1NCCCCCCNC(=O)[C@@H](N)CCCCNC(=O)CCCC[C@@H]1SC[C@@H]2NC(=O)N[C@@H]21`, in that order: 8.15 and “inactive”.
In test [1], `Cc1cc(Cn2cnc3c2C[C@@H](C(=O)O)N(C(=O)C(c2ccccc2)c2ccccc2)C3)ccc1NCCCCCCNC(=O)CCNc1ccc([N+](=O)[O-])c2nonc12` had a pIC50 of 8.44. Moreover, the inhibition result in test [3] was “inactive”.
Turning to `Cc1cc(Cn2cnc3c2C[C@@H](C(=O)O)N(C(=O)C(c2ccccc2)c2ccccc2)C3)ccc1N(C)C`, the inhibition entry in test [2] was “inactive”.
